# Target: T1, human wild-type (WT)-pendrin (Homo sapiens, UniProt O43511)
# T1 construct: expressed in transfected cells
# T1 sequence (O43511 1-780): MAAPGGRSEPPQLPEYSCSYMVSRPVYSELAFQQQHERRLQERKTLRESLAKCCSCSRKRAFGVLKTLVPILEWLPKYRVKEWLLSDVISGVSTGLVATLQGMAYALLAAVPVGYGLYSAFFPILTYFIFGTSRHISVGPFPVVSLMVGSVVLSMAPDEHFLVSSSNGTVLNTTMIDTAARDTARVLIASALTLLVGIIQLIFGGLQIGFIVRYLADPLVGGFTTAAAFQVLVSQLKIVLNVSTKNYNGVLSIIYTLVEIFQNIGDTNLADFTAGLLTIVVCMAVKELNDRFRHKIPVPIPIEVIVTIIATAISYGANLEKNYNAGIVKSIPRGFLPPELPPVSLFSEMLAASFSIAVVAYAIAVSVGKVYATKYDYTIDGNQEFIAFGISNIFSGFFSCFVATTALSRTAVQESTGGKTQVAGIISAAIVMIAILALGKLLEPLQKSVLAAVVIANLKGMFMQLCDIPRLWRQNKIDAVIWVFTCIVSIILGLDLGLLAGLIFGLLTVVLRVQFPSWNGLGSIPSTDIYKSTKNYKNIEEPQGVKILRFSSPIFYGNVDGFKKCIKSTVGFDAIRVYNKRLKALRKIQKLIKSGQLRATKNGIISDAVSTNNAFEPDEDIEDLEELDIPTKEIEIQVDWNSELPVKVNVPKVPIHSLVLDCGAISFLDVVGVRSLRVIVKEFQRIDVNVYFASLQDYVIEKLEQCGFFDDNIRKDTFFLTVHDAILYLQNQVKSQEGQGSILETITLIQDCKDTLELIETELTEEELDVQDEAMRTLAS
# Assay: Pendrin-mediated Cl^−/I^− exchange activity, YFP fluorescence in CHO-K1 cells
# Type: cell-based
# Conditions: CHO-K1, 30 μM; read-out: Pendrin inhibitory activity at 30 μM (%)
row,Compound,inhibition at 30 µM
1,"O=C1OC(c2ccc(-c3ccccc3)cc2)=NC1=Cc1cccs1 [F37, 2-([1,1′-biphenyl]-4-yl)-4-(thiophen-2-ylmethylene)oxazol-5 (4H)-one]",3.5%
2,"CC(C)(C)c1ccc(C2=NC(=Cc3ccco3)C(=O)O2)cc1 [F38, 2-(4-(tert-butyl)phenyl)-4-(furan-2-ylmethylene)oxazol-5 (4H)-one]",92.6%
3,"CC(=O)n1cc(C=C2N=C(c3ccc(C(C)(C)C)cc3)OC2=O)c(-c2ccccc2)n1 [F82, 4-((1-Acetyl-3-phenyl-1H-pyrazol-4-yl)methylene)-2-(4-(tert-butyl)phenyl)oxazol-5 (4H)-one]",2.7%
4,"C=CCOc1cc(N(CC)CC)ccc1C=C1N=C(c2ccc(NC(=O)c3cncc(Br)c3)cc2)OC1=O [F66, N-(4-(4-(2-(Allyloxy)-4-(diethylamino)benzylidene)-5-oxo-4,5-dihydrooxazol-2-yl)phenyl)-5-bromonicotinamide]",2.3%
5,"CCCCCCc1ccc(C2=NC(=Cc3ccc[nH]3)C(=O)O2)cc1 [F147, 4-((1H-pyrrol-2-yl)methylene)-2-(4-hexylphenyl)oxazol-5(4H)-one]",3.4%
6,"Cc1ncsc1C=C1N=C(c2ccc(-c3ccccc3)cc2)OC1=O [F24, 2-([1,1′-biphenyl]-4-yl)-4-((4-methylthiazol-5-yl)methylene)oxazol-5 (4H)-one]",3.6%
7,"CCCCCc1ccc(C(=O)NC(=Cc2ccco2)C(=O)O)cc1 [G35, 3-(Furan-2-yl)-2-(4-pentylbenzamido)acrylate]",94%
8,"CC(C)Cc1ccc(C2=NC(=Cc3ccc[nH]3)C(=O)O2)cc1 [F20, 4-((1H-pyrrol-2-yl)methylene)-2-(4-isobutylphenyl)oxazol-5 (4H)-one]",82.9%
9,"COc1ccc(C2=NC(=Cc3cccs3)C(=O)O2)cc1 [F87, 2-(4-Methoxyphenyl)-4-(thiophen-2-ylmethylene)oxazol-5 (4H)-one]",3.6%
10,"COc1ccc2[nH]c(=O)c(C=C3N=C(c4ccccc4)OC3=O)cc2c1 [F84, 4-((6-Methoxy-2-oxo-1,2-dihydroquinolin-3-yl)methylene)-2-phenyloxazol-5(4H)-one]",3.4%
11,"COc1ccccc1C1=NC(=Cc2cnn(C(C)(C)C)c2)C(=O)O1 [F136, 4-((1-(tert-butyl)-1H-pyrazol-4-yl)methylene)-2-(2-methoxyphenyl)oxazol-5(4H)-one]",2.4%
12,"CC(C)c1ccc(C2=NC(=Cc3ccco3)C(=O)O2)cc1 [F49, 4-(Furan-2-ylmethylene)-2-(4-isopropylphenyl)oxazol-5 (4H)-one]",89.1%
13,"O=C1OC(c2ccc(OC(F)F)cc2)=NC1=Cc1cccs1 [F55, 2-(4-(difluoromethoxy)phenyl)-4-(thiophen-2-ylmethylene)oxazol-5(4H)-one]",3.8%
14,"CC(=O)Nc1ccc(C2=NC(=Cc3ccc(Br)s3)C(=O)O2)cc1 [F107, N-(4-(4-((5-bromothiophen-2-yl)methylene)-5-oxo-4,5-dihydrooxazol-2-yl)phenyl)acetamide]",2.9%
15,"CCN(CC)S(=O)(=O)c1ccc(C2=N/C(=C3\C=CC=CN3C)C(=O)O2)cc1 [F127, N,N-diethyl-4-(4-(1-methylpyridin-2(1H)-ylidene)-5-oxo-4,5-dihydrooxazol-2-yl)benzenesulfonamide]",3.6%
16,"O=C1OC(c2ccc(-c3ccccc3)cc2)=NC1=Cc1cccnc1 [F42, 2-([1,1′-biphenyl]-4-yl)-4-(pyridin-3-ylmethylene)oxazol-5(4H)-one]",4.2%
17,"O=C1OC(c2ccc3ccccc3c2)=NC1=Cc1cccs1 [F52, 2-(Naphthalen-2-yl)-4-(thiophen-2-ylmethylene)oxazol-5(4H)-one]",4.1%
18,"CC(C)Cc1ccc(C2=NC(=Cc3csc4ccccc34)C(=O)O2)cc1 [F21, 4-(Benzo[b]thiophen-3-ylmethylene)-2-(4-isobutylphenyl)oxazol-5(4H)-one]",2.9%
19,"COC(=O)c1ccc(C2=NC(=Cc3cccs3)C(=O)O2)cc1 [F7, Methyl 4-(5-oxo-4-(thiophen-2-ylmethylene)-4,5-dihydrooxazol-2-yl)benzoate]",2.8%
20,"O=C1OC(c2cccs2)=NC1=Cc1cccs1 [F89, 2-(Thiophen-2-yl)-4-(thiophen-2-ylmethylene)oxazol-5(4H)-one]",2.8%
21,"Cc1cc(C)cc(C(=O)NC(=Cc2cccs2)C(=O)O)c1 [G42, 2-(3,5-Dimethylbenzamido)-3-(thiophen-2-yl)acrylate]",2.7%

row,Compound,inhibition at 30 µM
1,"O=C1OC(c2ccc(C(F)(F)F)cc2)=NC1=Cc1ccco1 [F48, 4-(Furan-2-ylmethylene)-2-(4-(trifluoromethyl)phenyl)oxazol-5(4H)-one]",2.4%
2,"O=C1OC(c2ccc(Oc3ccccc3)cc2)=NC1=Cc1cccs1 [F95, 2-(4-Phenoxyphenyl)-4-(thiophen-2-ylmethylene)oxazol-5(4H)-one]",3.8%
3,"CC(=O)Nc1ccc(C=C2N=C(c3ccc(OC(C)C)cc3)OC2=O)cc1 [F129, N-(4-((2-(4-isopropoxyphenyl)-5-oxooxazol-4(5H)-ylidene)methyl)phenyl)acetamide]",2.3%
4,"CCCCc1ccc(C2=NC(=Cc3cccs3)C(=O)O2)cc1 [F53, 2-(4-Butylphenyl)-4-(thiophen-2-ylmethylene)oxazol-5(4H)-one]",3.1%
5,"Cc1ccc(C2=NC(=Cc3cccs3)C(=O)O2)cc1I [F63, 2-(3-Iodo-4-methylphenyl)-4-(thiophen-2-ylmethylene)oxazol-5(4H)-one]",1.6%
6,"CC(C)(C)c1ccc(C2=NC(=Cc3ccsc3)C(=O)O2)cc1 [F9, 2-(4-(tert-butyl)phenyl)-4-(thiophen-3-ylmethylene)oxazol-5 (4H)-one]",52.5%
7,"COc1cc(C2=NC(=Cc3cccs3)C(=O)O2)cc(OC)c1OC [F94, 4-(Thiophen-2-ylmethylene)-2-(3,4,5-trimethoxyphenyl)oxazol-5(4H)-one]",1.9%
8,CC(C)(C#N)c1ccc(C2=NC(=Cc3ccc[nH]3)C(=O)O2)cc1 [F148],100%
9,"Cn1cc(C=C(NC(=O)c2ccc(C(C)(C)C)cc2)C(=O)O)cn1 [G10, 2-(4-(tert-butyl)benzamido)-3-(1-methyl-1H-pyrazol-4-yl)acrylate]",4.3%
10,"CC(=O)Oc1ccc(C2=NC(=Cc3cccs3)C(=O)O2)cc1 [F90, 4-(5-Oxo-4-(thiophen-2-ylmethylene)-4,5-dihydrooxazol-2-yl)phenylacetate]",3.3%
11,"COC(=O)C(=Cc1cccs1)NC(=O)c1ccc(C(C)(C)C)cc1 [G2, Methyl 2-(4-(tert-butyl)benzamido)-3-(thiophen-2-yl)acrylate]",3.8%
12,"O=C1OC(C2CCCCC2)=NC1=Cc1cccs1 [F23, 2-Cyclohexyl-4-(thiophen-2-ylmethylene)oxazol-5 (4H)-one]",2.1%
13,"O=C1OC(Cc2ccc(-c3ccccc3)cc2)=NC1=Cc1ccc[nH]1 [F25, 4-((1H-pyrrol-2-yl)methylene)-2-([1,1′-biphenyl]-4-ylmethyl)oxazol-5(4H)-one]",3.8%
14,"CN(C)c1ccc(C=C2N=C(c3sc4ccccc4c3Cl)OC2=O)cc1 [F59, 2-(3-Chlorobenzo[b]thiophen-2-yl)-4-(4-(dimethylamino)benzylidene)oxazol-5(4H)-one]",1.8%
15,"CC(C)Cc1ccc(C(=O)NC(=Cc2ccc[nH]2)C(=O)O)cc1 [G26, 2-(4-Isobutylbenzamido)-3-(1H-pyrrol-2-yl)acrylate]",85.6%
16,"CC(=O)Oc1ccc(C=C2N=C(c3ccc(C(C)(C)C)cc3)OC2=O)cc1 [F58, 4-((2-(4-(tert-butyl)phenyl)-5-oxooxazol-4 (5H)-ylidene)methyl)phenylacetate]",2.5%
17,"CC(C)c1ccc(C2=NC(=Cc3csc4ccccc34)C(=O)O2)cc1 [F16, 4-(Benzo[b]thiophen-3-ylmethylene)-2-(4-isopropylphenyl)oxazol-5(4H)-one]",3.1%
18,"CN(C)S(=O)(=O)c1cccc(C2=NC(=Cc3cccs3)C(=O)O2)c1 [F116, N,N-dimethyl-3-(5-oxo-4-(thiophen-2-ylmethylene)-4,5-dihydrooxazol-2-yl) benzenesulfonamide]",2.6%
19,"CC(C)(C)c1ccc(C2=NC(=Cc3ccncc3)C(=O)O2)cc1 [F41, 2-(4-(tert-butyl)phenyl)-4-(pyridin-4-ylmethylene)oxazol-5(4H)-one]",27.5%
20,"CC(C)(C)c1ccc(C2=NC(=Cc3cc4ccccc4s3)C(=O)O2)cc1 [F11, 4-(Benzo[b]thiophen-2-ylmethylene)-2-(4-(tert-butyl)phenyl)oxazol-5 (4H)-one]",3.6%

# Same assay, conditions: compounds showing pendrin inhibitory activity of 50% or more at 30 μM; read-out: IC50
row,Compound,IC50
1,"CC(C)(C)c1ccc(C2=NC(=Cc3ccco3)C(=O)O2)cc1 [F38, 2-(4-(tert-butyl)phenyl)-4-(furan-2-ylmethylene)oxazol-5 (4H)-one]",3.5 ± 0.27 µM
2,"CCCCCc1ccc(C(=O)NC(=Cc2ccco2)C(=O)O)cc1 [G35, 3-(Furan-2-yl)-2-(4-pentylbenzamido)acrylate]",6.1 ± 0.88 µM
3,"CC(C)Cc1ccc(C2=NC(=Cc3ccc[nH]3)C(=O)O2)cc1 [F20, 4-((1H-pyrrol-2-yl)methylene)-2-(4-isobutylphenyl)oxazol-5 (4H)-one]",2.8 ± 0.26 µM
4,"CC(C)c1ccc(C2=NC(=Cc3ccco3)C(=O)O2)cc1 [F49, 4-(Furan-2-ylmethylene)-2-(4-isopropylphenyl)oxazol-5 (4H)-one]",3.9 ± 0.36 µM
5,"CC(C)(C)c1ccc(C2=NC(=Cc3ccsc3)C(=O)O2)cc1 [F9, 2-(4-(tert-butyl)phenyl)-4-(thiophen-3-ylmethylene)oxazol-5 (4H)-one]",28.7 ± 2.25 µM
6,CC(C)(C#N)c1ccc(C2=NC(=Cc3ccc[nH]3)C(=O)O2)cc1 [F148],0.2 ± 0.06 µM
7,"CC(C)Cc1ccc(C(=O)NC(=Cc2ccc[nH]2)C(=O)O)cc1 [G26, 2-(4-Isobutylbenzamido)-3-(1H-pyrrol-2-yl)acrylate]",10.2 ± 1.38 µM

# Source: patent US12691101B2, “Compound and method for preventing or treating of respiratory diseases comprising the same as an active ingredient” (YONSEI UNIVERSITY, UNIVERSITY - INDUSTRY FOUNDATION (UIF), priority 2019, dated 2026)
